Laboratory results taken from ChEMBL document CHEMBL4145542, “Recent progress in potential anti-hepatitis B virus agents: Structural and pharmacological perspectives” (Eur J Med Chem, 2018).

Legend:
[1] = system: Hepatitis B virus; assay: Antiviral activity against HBV infected in human HepDES19 cells assessed as reduction in viral cccDNA level; format: functional, organism-based
[2] = system: Hepatitis B virus; assay: Antiviral activity against HBV infected in human HepG2.2.15 cells assessed as reduction in viral DNA level after 8 days by dot-blot hybridization assay; format: functional, organism-based; conditions: HepG2.2.15, 192 h

| EC50 [1] [nM] | IC50 [2] [nM] | Compound |
| --- | --- | --- |
| 3000 | – | Cc1nc2cc(NC(=O)c3ccc(S(=O)(=O)N(C)Cc4ccccc4)cc3)ccc2s1 |
| – | 53 | COC(=O)C1=C(C)NC(c2ncc(F)cc2F)=N[C@H]1c1ccc(F)cc1Cl |
| 10000 | – | O=C(CN(c1cc(C(F)(F)F)ccc1Cl)S(=O)(=O)c1ccccc1)NCc1ccncc1 |
